Experimental data reported in US11214803B2, “Modulators of YAP1 expression” (Ionis Pharmaceuticals, Inc., priority 2019, dated 2022).
Strand notation (5' to 3'): a small letter for the sugar, then the base; units joined by * are phosphorothioate-linked, units joined directly phosphodiester-linked; [ ] holds rarer units or linkages, { } end groups; capitals alone tell only the bases. k = constrained ethyl (cEt); [5mC] = 5-methylcytosine; d = 2'-deoxy (DNA)

Legend:
Yap1 mRNA [1] = assay: Yap1 mRNA in NCI H747 cells, RNA analysis (Example 31); format: cell-based, human; settings: free uptake, approximately 48 hours
Procedure: Modified oligonucleotides described in the studies above were tested at various doses in colorectal adenocarcinoma cell line NCI H747. A control oligonucleotide 792169 was also tested.
(§1) Cultured NCI H747 cells at a density of 10,000 cells per well were treated using free uptake with modified oligonucleotides diluted to concentrations described in the tables below. After approximately 48 hours, Yap1 mRNA levels were measured as previously described using the Human Yap1 primer-probe set RTS4814. Yap1 mRNA levels were normalized to actin-beta content, as measured by primer probe set RTS5002. Results are presented in the tables below as percent control of the amount of Yap1 mRNA relative to untreated control cells (% UTC).

BICR-22 cells = assay: Cell proliferation assay in BICR-22 cells, CellTiter-Glo (Example 35); format: cell-based, human; settings: free uptake, approximately 144 hours
Procedure: Modified oligonucleotides described in the studies above were tested at various doses in tongue squamous carcinoma (lymph node metastasis) cell line BICR-22. A control oligonucleotide 792169, described herein above, was also tested.
(§2) Cultured BICR-22 cells at a density of 1000 cells/well were treated using free uptake with modified oligonucleotides diluted to concentrations described in the tables below. After approximately 144 hours, cell proliferation was measured using the luminescent cell viability CellTiter-Glo® 2.0 Assay (Promega). Results are presented in the tables below as percent control of the amount of luminescence in samples treated with modified oligonucleotides relative to untreated control cells (% UTC).

Yap1 mRNA [2] = assay: Yap1 mRNA in NCI H292 cells, RNA analysis (Example 32); format: cell-based, human; settings: free uptake, approximately 48 hours
Procedure: Modified oligonucleotides described in the studies above were tested at various doses in mucoepidermoid pulmonary carcinoma cell line […]. A control oligonucleotide 792169 was also tested.
as §1, with “H292” for “H747”, “5000” for “10,000”

SNU-1076 cells = assay: Cell proliferation assay in SNU-1076 cells, CellTiter-Glo (Example 45); format: cell-based, human; settings: free uptake, approximately 144 hours
Procedure: Modified oligonucleotides described in the studies above were tested at various doses in upper aerodigestive tract/laryngeal squamous cell carcinoma line SNU-1076. A control oligonucleotide 792169, described herein above, was also tested.
as §2, with “SNU-1076” for “BICR-22”

Yap1 mRNA [3] = assay: Yap1 mRNA in SCC-15 cells, RNA analysis (Example 41); format: cell-based, human; settings: free uptake, approximately 48 hours
Procedure: Modified oligonucleotides described in the studies above were tested at various doses in tongue squamous cell carcinoma cell line SCC-15. A control oligonucleotide 792169, described herein above, was also tested.
as §1, with “SCC-15” for “NCI H747”, “5000” for “10,000”

Detroit-562 cells = assay: Cell proliferation assay in Detroit-562 cells, CellTiter-Glo (Example 38); format: cell-based, human; settings: free uptake, approximately 144 hours
Procedure: Modified oligonucleotides described in the studies above were tested at various doses in pharynx carcinoma cell line Detroit-562. A control oligonucleotide 792169, described herein above, was also tested.
as §2, with “Detroit-562” for “BICR-22”

Yap1 mRNA [4] = assay: Yap1 mRNA in CAL33 cells, RNA analysis (Example 36); format: cell-based, human; settings: free uptake, approximately 48 hours
Procedure: Modified oligonucleotides described in the studies above were tested at various doses in tongue squamous cell carcinoma line CAL33. A control oligonucleotide 792169, described herein above, was also tested.
as §1, with “CAL33” for “NCI H747”, “5000” for “10,000”

[5] = Tolerability in CD-1 mice, plasma chemistry markers (Example 19); format: in vivo; settings: male CD-1 mice, 50 mg/kg s.c. twice a week for four weeks (8 treatments), day 26
Procedure: CD-1 mice were treated with modified oligonucleotides selected from studies described above and evaluated for changes in the levels of various plasma chemistry markers.
Groups of four male CD-1 mice at 4-6 weeks of age (obtained from Charles River) were injected subcutaneously twice a week for four weeks (for a total of 8 treatments) with 50 mg/kg of modified oligonucleotides. One group of male CD-1 mice was injected with PBS. Mice were euthanized on day 26 post start of treatment (24 hrs following the final administration).

| Substance | human Yap1 mRNA expression (Yap1 mRNA [1]; 0.04 μM) | human Yap1 mRNA expression (Yap1 mRNA [1]; 0.2 μM) | human Yap1 mRNA expression (Yap1 mRNA [1]; 1 μM) | human Yap1 mRNA expression (Yap1 mRNA [1]; 5 μM) | Antiproliferative effect (cell proliferation, luminescence) (BICR-22 cells; 0.04 μM) | Antiproliferative effect (cell proliferation, luminescence) (BICR-22 cells; 0.2 μM) | Antiproliferative effect (cell proliferation, luminescence) (BICR-22 cells; 1 μM) | Antiproliferative effect (cell proliferation, luminescence) (BICR-22 cells; 5 μM) | human Yap1 mRNA expression (Yap1 mRNA [2]; 0.04 μM) | human Yap1 mRNA expression (Yap1 mRNA [2]; 0.2 μM) | human Yap1 mRNA expression (Yap1 mRNA [2]; 1 μM) | human Yap1 mRNA expression (Yap1 mRNA [2]; 5 μM) | Antiproliferative effect (cell proliferation, luminescence) (SNU-1076 cells; 0.04 μM) | Antiproliferative effect (cell proliferation, luminescence) (SNU-1076 cells; 0.2 μM) | Antiproliferative effect (cell proliferation, luminescence) (SNU-1076 cells; 1 μM) | Antiproliferative effect (cell proliferation, luminescence) (SNU-1076 cells; 5 μM) | human Yap1 mRNA expression (Yap1 mRNA [3]; 0.04 μM) | human Yap1 mRNA expression (Yap1 mRNA [3]; 0.2 μM) | human Yap1 mRNA expression (Yap1 mRNA [3]; 1 μM) | human Yap1 mRNA expression (Yap1 mRNA [3]; 5 μM) | also measured |
| --- | --- | --- | --- | --- | --- | --- | --- | --- | --- | --- | --- | --- | --- | --- | --- | --- | --- | --- | --- | --- | --- |
| 715487 (kA*kT*kT*dA*d[5mC]*dT*dT*d[5mC]*dA*dT*dA*dG*d[5mC]*kT*kT*kA) [compound 715487] | 83 % UTC | 70 % UTC | 49 % UTC | 30 % UTC | 70 % UTC | 56 % UTC | 28 % UTC | 22 % UTC | 104 % UTC | 83 % UTC | 40 % UTC | 12 % UTC | 91 % UTC | 90 % UTC | 86 % UTC | 79 % UTC | 69 % UTC | 33 % UTC | 12 % UTC | 5 % UTC | Antiproliferative effect (cell proliferation, luminescence) (Detroit-562 cells; 0.04 μM): 92 % UTC; Antiproliferative effect (cell proliferation, luminescence) (Detroit-562 cells; 0.2 μM): 84 % UTC; Antiproliferative effect (cell proliferation, luminescence) (Detroit-562 cells; 1 μM): 71 % UTC; Antiproliferative effect (cell proliferation, luminescence) (Detroit-562 cells; 5 μM): 52 % UTC; human Yap1 mRNA expression (Yap1 mRNA [4]; 0.04 μM): 81 % UTC; human Yap1 mRNA expression (Yap1 mRNA [4]; 0.2 μM): 41 % UTC; human Yap1 mRNA expression (Yap1 mRNA [4]; 1 μM): 12 % UTC; human Yap1 mRNA expression (Yap1 mRNA [4]; 5 μM): 6 % UTC |
| 1198440 (AAGTGTATGTCAGAAG; cEt, 2'-MOE, 5-methylcytosine, phosphorothioate modifications, further chemistry not given here) [compound 1198440] | 73 % UTC | 53 % UTC | 21 % UTC | 9 % UTC | 55 % UTC | 37 % UTC | 29 % UTC | 19 % UTC | 89 % UTC | 53 % UTC | 18 % UTC | 5 % UTC | 99 % UTC | 87 % UTC | 81 % UTC | 81 % UTC | 39 % UTC | 10 % UTC | 4 % UTC | 2 % UTC | ALT [5]: 121 U/L; AST [5]: 140 U/L; BUN [5]: 19 mg/dL; TBIL [5]: 0.22 mg/dL; Antiproliferative effect (cell proliferation, luminescence) (Detroit-562 cells; 0.04 μM): 84 % UTC; Antiproliferative effect (cell proliferation, luminescence) (Detroit-562 cells; 0.2 μM): 67 % UTC; Antiproliferative effect (cell proliferation, luminescence) (Detroit-562 cells; 1 μM): 59 % UTC; Antiproliferative effect (cell proliferation, luminescence) (Detroit-562 cells; 5 μM): 45 % UTC; human Yap1 mRNA expression (Yap1 mRNA [4]; 0.04 μM): 43 % UTC; human Yap1 mRNA expression (Yap1 mRNA [4]; 0.2 μM): 14 % UTC; human Yap1 mRNA expression (Yap1 mRNA [4]; 1 μM): 5 % UTC; human Yap1 mRNA expression (Yap1 mRNA [4]; 5 μM): 5 % UTC |
| 1198872 (TGTATGTCAGAAGAGT; chemically modified gapmer, further chemistry not given here) [compound 1198872] |  |  |  |  |  |  |  |  |  |  |  |  |  |  |  |  |  |  |  |  | ALT [5]: 192 U/L; AST [5]: 207 U/L; BUN [5]: 22 mg/dL; TBIL [5]: 0.25 mg/dL |
| 1198439 (AGTGTATGTCAGAAGA; sugar, 5-methylcytosine, phosphorothioate modifications, further chemistry not given here) [compound 1198439] |  |  |  |  |  |  |  |  |  |  |  |  |  |  |  |  |  |  |  |  | ALT [5]: 210 U/L; AST [5]: 219 U/L; BUN [5]: 18 mg/dL; TBIL [5]: 0.25 mg/dL |
| CGCCGATAAGGTACAC (cEt gapmer, phosphorothioate backbone, further chemistry not given here) [ION 792169, reference compound] | 94 % UTC | 83 % UTC | 87 % UTC | 100 % UTC | 97 % UTC | 95 % UTC | 82 % UTC | 65 % UTC | 98 % UTC | 112 % UTC | 111 % UTC | 106 % UTC | 97 % UTC | 104 % UTC | 106 % UTC | 108 % UTC | 91 % UTC | 100 % UTC | 102 % UTC | 105 % UTC | Antiproliferative effect (cell proliferation, luminescence) (Detroit-562 cells; 0.04 μM): 99 % UTC; Antiproliferative effect (cell proliferation, luminescence) (Detroit-562 cells; 0.2 μM): 106 % UTC; Antiproliferative effect (cell proliferation, luminescence) (Detroit-562 cells; 1 μM): 100 % UTC; Antiproliferative effect (cell proliferation, luminescence) (Detroit-562 cells; 5 μM): 79 % UTC; human Yap1 mRNA expression (Yap1 mRNA [4]; 0.04 μM): 106 % UTC; human Yap1 mRNA expression (Yap1 mRNA [4]; 0.2 μM): 106 % UTC; human Yap1 mRNA expression (Yap1 mRNA [4]; 1 μM): 91 % UTC; human Yap1 mRNA expression (Yap1 mRNA [4]; 5 μM): 85 % UTC |
